Results from patent publication US20250090510A1, “eIF4G1-eIF1 INHIBITORS AND USE THEREOF” (YEDA RESEARCH AND DEVELOPMENT CO. LTD., priority 2022, published 2025).

Tested on: HEK293T cells
Test: Polysome fractionation and real-time PCR of specific genes
Assay type: cell-based, human
Settings: 3 h
Description: FIGS. 5A-D: 5′UTR length-dependent translational control by the eIF1-eIF4G1. […] The asterisks denote a statistically significant difference. **p<0.01, ****p<0.0001. (5B) A scheme of the firefly reporter genes that are driven by long (354 nt) and short (111 nt) 5′ UTR length, is shown on the top. HEK293T cells were transfected with these reporter genes. After 4 h, transfected cells were treated with DMSO, i14G1-10 (5 μM), or i14G1-12 (5 μM) for 16 h and analyzed for firefly luciferase activities. The graph presents the normalized luminescence activity of the long 5′UTR and the short 5′UTR reporters in the indicated treatments. The data are shown as mean±SEM, n=6. The asterisks denote statistically significant difference compared to DMSO, according to Student's t-tests (one-tailed, paired). *p<0.05; **p<0.01. (5C-D) HEK293T cells were treated with DMSO, i14G1-10, and i14G1-12 for 3 h, lysed, and subjected to sucrose gradient sedimentation and fractionation. Fractions were pooled according to polysome profile as free (grey), light (blue), and heavy (yellow) polysomal fractions. cDNA was prepared from each fraction pool and real-time PCR was performed for the indicated TISU genes (5C) or histone genes (5D). The data are shown as mean±SEM, n=3. The asterisks denote statistically significant difference compared to DMSO, according to Student's t-tests (one-tailed, paired), *p<0.05; **p<0.01.
FIGS. 7A-E: (7A) Ribo-seq and TI-seq read tracks of representative stress response-associated mRNAs (DDIT3 and GADD34) in DMSO (black), i14G1-10 (red), and i14G1-12 (green) samples. The red triangle represents 5′UTR TIS codons and the green denotes annotated TIS. Black arrows show the translation direction. […] The graphs in the lower panel are the quantification of ATF4's uORF1′, uORF1, uORF2, and main-ORF reads of the Ribo-seq data. The asterisks denote statistically significant difference compared to DMSO, according to Student's t-tests (one-tailed, paired). **p<0.01, ***p<0.001, ****p<0.0001. (7C) HEK293T cells were treated with DMSO, i14G1-10, and i14G1-12 for 3 h, lysed and subjected to sucrose gradient sedimentation and fractionation. Fractions of the free (grey), light (blue), and heavy (yellow) were pooled. cDNA was prepared from each fraction pool and real-time PCR was performed for the indicated ISR genes. The data are shown as mean±SEM, n=3. The asterisks denote statistically significant difference compared to DMSO, according to Student's t-tests (one-tailed, paired). *p<0.05; **p<0.01. (7D) HEK293T cells were treated with DMSO, i14G1-10, and i14G1-12 for 3 h. The respective cell lysates were subjected to western blot to check the protein levels of ATF3 and ATF4 (left). The graph represents the relative chemiluminescence signal intensity (mean±SEM) for ATF4 and AT3 normalized to GAPDH protein levels of three biological replicates. The asterisks denote statistically significant difference compared to DMSO, according to Student's t-tests (one-tailed, paired), *p<0.05. (7E) Control MEFs and eIF2α S52A mutant MEFs were treated with DMSO (vehicle control), and sub-cytotoxic concentrations of i14G1-10 (30 μM) and i14G1-12 (15 μM) for 3h. Cell lysates were then subjected to sucrose gradient sedimentation to obtain polysome profiles.
Polysome profile and real-time PCR. HEK293T cells were cultured in 10 cm plate up to 80% confluence, followed by DMSO, i14G1-10 (20 μM), and i14G1-12 (10 μM) treatment. After 3 h, the cells were incubated with 100 μg/ml cycloheximide for 5 minutes, washed with cold polysome buffer (20 mM Tris pH8, 140 mM KCl, 5 mM MgCl2, and 100 μg/ml cycloheximide). Cells were collected in 500-μl polysome buffer supplemented with 0.5% Triton, 0.5% DOC, 1.5 mM DTT, 150 units RNase inhibitor, and 5-μl protease inhibitor cocktail. Lysed samples were centrifuged at 12000 RPM, 5 minutes at 4° C. The cleared lysate was loaded onto sucrose density gradient (10-50%) and centrifuged at 38000 RPM for 105 minutes at 4° C. […]

SMILES | translation of ACTB mRNA (control) in polysome fractions | translation of eight histone genes in polysome fractions | translation of seven TISU genes in polysome fractions | translation of stress-response genes in Free, Light and Heavy polysome fractions
O=C(/C=C/Sc1ccc(C(F)(F)F)cn1)c1ccccc1 [i14G1-10] | decreased translation of the ACTB mRNA | general trend of upregulation | either unaffected or slightly upregulated | all found to be upregulated
Cn1ccnc1S/C(=C/C=C(C#N)C#N)c1ccc(Cl)cc1 [i14G1-12] | decreased translation of the ACTB mRNA | general trend of upregulation | either unaffected or slightly upregulated | all found to be upregulated
